Reference: patent publication US12545639B2, “3-substituted phenylamidine compounds, preparation and use thereof” (PI INDUSTRIES LTD., priority 2019, dated 2026)

Tests used:
Phakopsora pachyrhizi = Phakopsora pachyrhizi test in soybean, preventive, in vivo on plants; conditions: in Glycine max, read-out: Efficacy (% control), disease severity compared to the untreated check
Rhizoctonia solani = Rhizoctonia solani (rice sheath blight/potato black scurf) in vitro test, radial growth on potato dextrose agar; type: cell-based; conditions: 168 h, 300 ppm in potato dextrose agar, 25° C., 60% relative humidity, seven days, read-out: control compared to the untreated check (radial growth)
Alternaria solani = Alternaria solani (early blight of tomato/potato) in vitro test, radial growth on potato dextrose agar; type: cell-based; conditions: 168 h, 300 ppm in potato dextrose agar, 25° C., 60% relative humidity, seven days, read-out: control compared to the untreated check (radial growth)
Pyricularia oryzae = experiment: microbe, parasite or virus in culture; type: cell-based; conditions: 168 h, read-out: control compared to the untreated check (radial growth)

Structure (SMILES)	pest or weed control at 500 ppm (Phakopsora pachyrhizi)	further results
CCN(C)C=Nc1cc(OC)cc(Cc2ccc(Cl)cc2)c1C [Compound 279, N′-(3-(4-chlorobenzyl)-5-methoxy-2-methylphenyl)-N-ethyl-N-methylformimidamide]	≥ 70%	
CCN(C)C=Nc1cc(OC)cc(Cc2ccc(F)c(Cl)c2)c1C [Compound 282, N′-(3-(3-chloro-4-fluorobenzyl)-5-methoxy-2-methylphenyl)-N-ethyl-N-methylformimidamide]	≥ 70%	
CCN(C)C=Nc1cc(F)cc(Nc2ncccn2)c1C [Compound 187, N-ethyl-N′-(5-fluoro-2-methyl-3-(pyrimidin-2-ylamino)phenyl)-N-methylformimidamide]	≥ 70%	
CCN(C)C=Nc1cc(F)cc(Nc2cnccn2)c1C [Compound 193, N-ethyl-N′-(5-fluoro-2-methyl-3-(pyrazin-2-ylamino)phenyl)-N-methylformimidamide]	≥ 70%	
CCN(C)C=Nc1cc(C)cc(Nc2cnccn2)c1Cl [Compound 194, N′-(2-chloro-5-methyl-3-(pyrazin-2-ylamino)phenyl)-N-ethyl-N-methylformimidamide]	≥ 70%	
CCN(C)C=Nc1cc(OC)cc(N(C)c2ccc(F)c(OC)c2)c1C [Compound 284, N-ethyl-N′-(3-((4-fluoro-3-methoxyphenyl)(methyl)amino)-5-methoxy-2-methylphenyl)-N-methylformimidamide]	≥ 70%	
CCN(C)C=Nc1cc(C)cc(NC(C)Cc2cnccn2)c1Cl (stereo not drawn) [Compound 195, N′-(2-chloro-5-methyl-3-((1-(pyrazin-2-yl)propan-2-yl)amino)phenyl)-N-ethyl-N-methylformimidamide]	≥ 70%	
CCN(C)C=Nc1cc(C)cc(N(C)c2cnccn2)c1Cl [Compound 210, N′-(2-chloro-5-methyl-3-(methyl(pyrazin-2-yl)amino)phenyl)-N-ethyl-N-methylformimidamide]	≥ 70%	
CCN(C)C=Nc1cc(C)cc(N(C)c2ccc3c(c2)OCCO3)c1Cl [Compound 184, N′-(2-chloro-3-((2,3-dihydrobenzo[b][1,4]dioxin-6-yl)(methyl)amino)-5-methylphenyl)-N-ethyl-N-methylformimidamide]	≥ 70%	
CCN(C)C=Nc1cc(C)cc(N(C)c2ncccn2)c1Cl [Compound 192, N′-(2-chloro-5-methyl-3-(methyl(pyrimidin-2-yl)amino)phenyl)-N-ethyl-N-methylformimidamide]	≥ 70%	
CCN(C)C=Nc1cc(F)cc(Nc2ccccn2)c1C [Compound 95, N-ethyl-N′-(5-fluoro-2-methyl-3-(pyridin-2-ylamino)phenyl)-N-methylformimidamide]	≥ 70%	
CCN(C)C=Nc1cc(OC)cc(Cc2cc(F)ccc2C)c1C [Compound 281, N-ethyl-N′-(3-(5-fluoro-2-methylbenzyl)-5-methoxy-2-methylphenyl)-N-methylformimidamide]	≥ 70%	
CCN(C)C=Nc1cc(C)cc(Nc2ccc3c(c2)OCCO3)c1Cl [Compound 169, N′-(2-chloro-3-((2,3-dihydrobenzo[b][1,4]dioxin-6-yl)amino)-5-methylphenyl)-N-ethyl-N-methylformimidamide]		inhibition of growth at 300 ppm (Rhizoctonia solani): ≥ 70%; inhibition of growth at 300 ppm (Alternaria solani): ≥ 70%; inhibition of growth at 300 ppm (Pyricularia oryzae): ≥ 70%
CCN(C)C=Nc1cc(OC)cc(N(C)c2ccccc2OC)c1C [Compound 270, N-ethyl-N′-(5-methoxy-3-((2-methoxyphenyl)(methyl)amino)-2-methylphenyl)-N-methylformimidamide]	≥ 70%	
CCN(C)C=Nc1cc(F)cc(N(C)c2ccccn2)c1C [Compound 109, N-ethyl-N′-(5-fluoro-2-methyl-3-(methyl(pyridin-2-yl)amino)phenyl)-N-methylformimidamide]	≥ 70%	
CCN(C)C=Nc1cc(OC)cc(Cc2cccc(C)c2)c1C [Compound 278, N-ethyl-N′-(5-methoxy-2-methyl-3-(3-methylbenzyl)phenyl)-N-methylformimidamide]	≥ 70%	
